In ChEMBL document CHEMBL4431390, “Dual action Smac mimetics-zinc chelators as pro-apoptotic antitumoral agents” (Bioorg Med Chem Lett, 2016) one finds IC50, Activity and Kd data, which are given here for 10 compounds.

The target of experiment [1] is T1, E3 ubiquitin-protein ligase XIAP (Homo sapiens, UniProt P98170). Briefly: Displacement of FITC-Smac from human recombinant His-tagged XIAP BIR3 domain (241 to 356 residues) expressed in Escherichia coli BL21(DE3) cells after 3 hrs by fluorescence polarization assay. (Fluorescence polarisation rises when a labelled molecule tumbles more slowly, as on binding a larger partner.)
T1 sequence (P98170 whole entry, the tested form may be a part): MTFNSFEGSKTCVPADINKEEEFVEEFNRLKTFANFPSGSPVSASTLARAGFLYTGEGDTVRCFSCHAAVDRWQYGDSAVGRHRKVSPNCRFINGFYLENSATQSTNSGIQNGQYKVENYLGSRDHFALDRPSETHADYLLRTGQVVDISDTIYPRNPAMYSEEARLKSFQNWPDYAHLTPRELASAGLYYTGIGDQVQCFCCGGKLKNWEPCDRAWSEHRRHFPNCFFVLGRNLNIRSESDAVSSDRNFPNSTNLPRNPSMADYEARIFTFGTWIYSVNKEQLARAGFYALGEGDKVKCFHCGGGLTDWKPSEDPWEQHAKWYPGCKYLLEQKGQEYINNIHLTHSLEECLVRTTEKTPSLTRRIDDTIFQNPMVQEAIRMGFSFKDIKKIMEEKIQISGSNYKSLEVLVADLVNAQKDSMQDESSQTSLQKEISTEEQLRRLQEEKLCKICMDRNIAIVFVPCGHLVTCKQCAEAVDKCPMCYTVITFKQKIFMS

Experiment [2] addresses T1, E3 ubiquitin-protein ligase XIAP. Briefly: Binding affinity to XIAP BIR3 domain in Smac mimetic-sensitive human MDA-MB-231 cells assessed as increase in cellular IAP1 degradation at 5 uM after 24 hrs by Western blot analysis. The experiment is classed as cell-based.
Experiment [3] has the same target. Briefly: Binding affinity to XIAP BIR3 domain in Smac mimetic-sensitive human MDA-MB-231 cells assessed as increase in cleaved caspase-3 expression at 5 uM after 24 hrs by Western blot analysis. It counts as cell-based. (Immunoblotting shows a protein as a band on a membrane.)
Experiment [4] shares this target. In words: Binding affinity to XIAP BIR3 domain in Smac mimetic-sensitive human MDA-MB-231 cells assessed as increase in cleaved PARP expression at 5 uM after 24 hrs by Western blot analysis. It counts as cell-based.
The nature of experiment [5]: Metal chelating activity assessed as compound-Zn2+ complex formation at 50 uM after 15 mins by spectrofluorimetric analysis. The experiment is classed as functional.
Experiment [6] can be described thus: Metal chelating activity assessed as compound-Zn2+ complex formation. The experiment is classed as functional.
The target in experiment [7] is T1, E3 ubiquitin-protein ligase XIAP. In words: Binding affinity to XIAP BIR3 domain in Smac mimetic-resistant human MDA-MB-453 cells assessed as increase in cellular IAP1 degradation at 5 uM after 24 hrs by Western blot analysis. The experiment is classed as cell-based.
Experiment [8] shares this target. Briefly: Binding affinity to XIAP BIR3 domain in Smac mimetic-resistant human MDA-MB-453 cells assessed as increase in cleaved caspase-3 expression at 5 uM after 24 hrs by Western blot analysis. The experiment is classed as cell-based.
Experiment [9] shares this target. In words: Binding affinity to XIAP BIR3 domain in Smac mimetic-resistant human MDA-MB-453 cells assessed as increase in cleaved PARP expression at 5 uM after 24 hrs by Western blot analysis. It counts as cell-based.
Experiment [10] has the same target. Briefly: Binding affinity to XIAP BIR3 domain in Smac mimetic-resistant human BT549 cells assessed as increase in cellular IAP1 degradation at 5 uM after 24 hrs by Western blot analysis.
Experiment [11] has the same target. In words: Binding affinity to XIAP BIR3 domain in Smac mimetic-resistant human BT549 cells assessed as increase in cleaved caspase-3 expression at 5 uM after 24 hrs by Western blot analysis.
The target is the same in experiment [12]. Briefly: Binding affinity to XIAP BIR3 domain in Smac mimetic-resistant human BT549 cells assessed as increase in cleaved PARP expression at 5 uM after 24 hrs by Western blot analysis.
In experiment [13] the test system is MDA-MB-231. In words: Cytotoxicity against Smac mimetic-sensitive human MDA-MB-231 cells assessed as growth inhibition after 24 hrs by CellTiter-Glo assay. The experiment is classed as functional, cell-based. The note with it: MDA-MB-231, 24 h. (In general: ATP-based viability assays read luminescence as a measure of living cells.)
For experiment [14], the system named is BT-549. Briefly: Cytotoxicity against Smac mimetic-resistant human BT549 cells assessed as growth inhibition after 24 hrs by CellTiter-Glo assay. The experiment is classed as functional, cell-based. The note with it: BT-549, 24 h.
In experiment [15] the test system is MDA-MB-453. Briefly: Cytotoxicity against Smac mimetic-resistant human MDA-MB-453 cells assessed as growth inhibition after 24 hrs by CellTiter-Glo assay. The experiment is classed as functional, cell-based. The note with it: MDA-MB-453, 24 h.
Experiment [16] concerns MDA-MB-231. Briefly: Effect on XIAP level in Smac mimetic-sensitive human MDA-MB-231 cells at 5 uM after 24 hrs by Western blot analysis. The experiment is classed as functional, cell-based.
Experiment [17] concerns BT-549. Briefly: Effect on XIAP level in Smac mimetic-resistant human BT549 cells at 5 uM after 24 hrs by Western blot analysis. It counts as functional, cell-based.
Experiment [18] relates to MDA-MB-453. Briefly: Effect on XIAP level in Smac mimetic-resistant human MDA-MB-453 cells at 5 uM after 24 hrs by Western blot analysis. It counts as functional, cell-based.

Active and inactive are the calls of the source. The rule behind the calls is not given here.

For orientation: IC50 means the concentration needed to halve the response being measured. What is called Kd is the constant that tells how readily two partners part at equilibrium.

In the case of `CC[C@H](NC)C(=O)N[C@@H]1C(=O)N2[C@@H](CC[C@@H]1CNC(=O)c1ccccc1)CC[C@H]2C(=O)N[C@@H](C(=O)N(Cc1ccccn1)Cc1ccccn1)c1ccccc1`, in [1], the half-maximal inhibitory concentration (IC50) is over 10 µM. Further, the outcome in [2], in experiment [3] and in experiment [4] was inactive.
`c1ccc(CNCc2ccccn2)nc1`: the outcome in experiment [5] was Active. Moreover, in experiment [6], the Kd was 210 nM.
Turning to `CC[C@H](NC)C(=O)N[C@@H]1C(=O)N2[C@@H](CC[C@@H]1CNC(=O)c1ccccc1)CC[C@H]2C(=O)N(Cc1ccccn1)Cc1ccccn1`, the 50% inhibitory concentration (IC50) in experiment [1] is over 10 µM. The result in experiment [2], in experiment [3] and in experiment [4] was inactive.
On to `CC[C@H](NC)C(=O)N[C@@H]1C(=O)N2[C@@H](CC[C@@H]1CNC(=O)c1ccccc1)CC[C@H]2C(=O)N[C@H](C(=O)N(Cc1ccccn1)Cc1ccccn1)c1ccccc1`, for which the IC50 in [1] was found to be 0.37 µM. In addition, the result in experiment [2], in [3], in experiment [4] and in experiment [7] was Active. In addition, the result in experiment [8] and in experiment [9] was inactive.
`CC[C@H](NC)C(=O)N[C@@H]1C(=O)N2[C@@H](CC[C@@H]1CNC(=O)c1ccccc1)CC[C@H]2C(=O)N[C@H](C(=O)NCCN(Cc1ccccn1)Cc1ccccn1)c1ccccc1`: in experiment [1], the IC50 is 0.091 µM. The outcome in [2], in experiment [3], in [4], in experiment [10], in experiment [7] and in experiment [11] was Active. Besides, in [12], the outcome was Active. The outcome in experiment [8] and in [9] was inactive.
Turning to `c1ccc(CN(CCN(Cc2ccccn2)Cc2ccccn2)Cc2ccccn2)nc1`, the dissociation constant (Kd) in [6] was 3e-07 nM.
As to `CC[C@H](NC)C(=O)N[C@@H]1C(=O)N2[C@@H](CC[C@@H]1CNC(=O)c1ccccc1)CC[C@H]2C(=O)NC(c1ccccc1)c1ccccc1`, the IC50 with MDA-MB-231 [13] was 2.3 µM; with BT-549 [14], over 25 µM; in the experiment on MDA-MB-453 [15], over 25 µM. Further, the result in experiment [2], in [3], in experiment [4], in experiment [10], in experiment [7] and in experiment [11] was Active. For the same compound, the outcome in [12] was Active. Also, the outcome (in the experiment on MDA-MB-231 [16]; in [8]; in experiment [9]; in the experiment on BT-549 [17]; in the experiment with MDA-MB-453 [18]) was inactive.
Turning to `CC[C@H](NC)C(=O)N[C@@H]1C(=O)N2[C@@H](CC[C@@H]1CNC(=O)c1ccccc1)CC[C@H]2C(=O)N[C@@H](C(=O)NCCN(Cc1ccccn1)Cc1ccccn1)c1ccccc1`, in experiment [1], the half-inhibitory concentration (IC50) was over 10 µM. Also, the outcome in [2], in experiment [3] and in [4] was inactive.
For `C=CCc1cccc(/C=N/NC(=O)[C@@H](NC(=O)[C@@H]2CC[C@@H]3CC[C@H](CCNC(=O)c4ccccc4)[C@H](NC(=O)[C@H](CC)NC)C(=O)N32)c2ccccc2)c1O`, the IC50 in experiment [1] was found to be 1.09 µM. Further, the result in experiment [2], in [3], in [4], in experiment [10] and in experiment [7] was Active. Besides, the result in experiment [8] and in [9] was inactive.
As to `C=CCc1cccc(/C=N/NC(=O)CN2CCN(Cc3ccccc3)CC2)c1O` [PAC-1], the IC50 is over 10 µM in experiment [1], 4.7 µM in the experiment with MDA-MB-231 [13], 14.3 µM in the experiment on BT-549 [14] and 2 µM in the experiment on MDA-MB-453 [15]. The outcome (in [2]; in [3]; in experiment [4]; in the experiment on MDA-MB-231 [16]; with BT-549 [17]; in the experiment on MDA-MB-453 [18]) was inactive.
